This experiment concerns cotton embryogenic callus. Briefly: β-glucuronidase (GUS) assay of embryogenic cotton callus after cocultivation with Agrobacterium strain A3311. It is filed as cell-based, cotton (variety Coker 312). On the procedure:
Embryogenic cotton callus was obtained in the following way: Cotton seeds of variety Coker 312 were disinfected using a 12% sodium hypochloride solution, and germinated individually in tubes containing a solution of gelrite 2/g/l H2O and 0.94 g/l MgCl2.6H2O. The tubes were incubated in the dark at 27-28° C. After 10 to 14 days, seedlings are collected, the hypocotyls of the seedlings were cut in segments of about 1 cm and incubated on medium 104 (without plant hormones) at 28° C. under a regime of 16 hr light and 8 hr dark. Every three weeks, the segments were transferred to fresh medium, until embryogenic callus was formed (usually after about 9 weeks). This callus was removed from the explants and cultured further on medium 104.
Agrobacterium strain A 3311 cells were grown on AB medium or MAG medium, collected and resuspended in M104 liquid medium, pH 5.2 (either with or without 100 μM acetosyringone (AS)) or MAG medium at a density of about 1×10^9 CFU/ml. Small embryogenic cotton callus clumps were collected, washed in liquid medium 104 at pH 5.2, and immersed in the Agrobacterium suspension for about 20 minutes. The infected embryogenic calli were than transferred to solid medium 104, pH 5.2, supplemented with either 100 μM AS, 0.5 g/l casamino acids, 100 μM AS and 0.5 g/l casamino acids, or not supplemented at all, and incubated for cocultivation during 4 days in the dark at about 24° C.
After the cocultivation phase, the callus clumps were transferred to selective medium 104 supplemented with 50 mg/l kanamycin and 500mg/l Claforan.
At different time intervals after the cocultivation, samples of embryogenic callus were collected and subjected to a β-glucuronidase assay, using a chromogenic substrate as described by Jefferson et al. (1987; Plant Mol. Biol. Rep. 5: 387-405). The results of these tests are summarized in table 1, and are expressed as the percentage of calli expressing GUS-positive spots.
As a control, experiments were included using tobacco leaf discs co-cultivated with A3311, using mock-inoculated tobacco leaf discs or using mock-inoculated embryogenic cotton callus.

Where [1] appears, read: 100 μM AS only in A3311 resuspension medium M104, cocultivation medium M104 not supplemented.
Setting [2] is: A3311 resuspended in M104 + 100 μM AS, supplement in cocultivation medium M104.
[3] abbreviates: A3311 resuspended in M104, supplement in cocultivation medium M104.
The mark [4] stands for this setting: A3311 resuspended in MAG, supplement in cocultivation medium M104.
The mark [5] stands for this setting: no Agrobacterium (mock-inoculated), supplement in cocultivation medium M104.

Structures are written as SMILES. Values joined by “and” are separate entries in the source; they are usually repeats but may differ in a detail not shown here. Equal values may be shown once.

With `COc1cc(C(C)=O)cc(OC)c1O` [AS, 3,5-dimethoxy-4-hydroxyacetophenone], the “percentage of calli expressing GUS-positive spots, 4 weeks” value runs as follows: under setting [1], 0%; under setting [4], 50%; under setting [5], 0%. Further, the “percentage of calli expressing GUS-positive spots, 6 weeks” value (“percentage … 6 weeks” below) under setting [1] stood at 0%; the “percentage … 6 weeks” value under setting [3] is 15% and 25%; the “percentage … 6 weeks” value under setting [4] is 50% and 90%; the “percentage … 6 weeks” value under setting [5] is reported as 0%. The “percentage of calli expressing GUS-positive spots, 8 weeks” value runs as follows: under setting [1], “Dead”; under setting [2], 90% and 50%; under setting [3], 20%; under setting [4], 90% and 80%; under setting [5], “Dead”. The “percentage of calli expressing GUS-positive spots, 4 days” value reads like this: under setting [1], 0%; (A3311 resuspended in MAG, supplement in cocultivation medium M104 (100 μM AS and/or 0.5 g/l cas. acids)) 90%; (no Agrobacterium (mock-inoculated), supplement in cocultivation medium M104 (100 μM AS and/or 0.5 g/l cas. acids)) 0%. Besides, the “percentage of calli expressing GUS-positive spots, 11 days” value was 0% under setting [1]; 70% and 90% under setting [2]; 50% and 90% under setting [3]; 90% under setting [4]; 0% under setting [5]. Besides, the “need for inclusion during Agrobacterium mediated transformation of embryogenic callus” value (both for transient expression and after prolonged cultivation of the transformed calli) is on record as “required”.

The record behind these values is patent US6483013B1, “Method for agrobacterium mediated transformation of cotton” (Bayer BioScience N.V., priority 1999, dated 2002).
